According to ChEMBL document CHEMBL5465560, “Selectivity Literature for EUbOPEN Chemogenomic Library” (2024):

How the values were obtained:
[1] = molecular target: Serine/threonine-protein kinase 10 (Homo sapiens) (UniProt O94804); conditions: at 10 µM
[2] = molecular target: Tyrosine-protein kinase Fer (Homo sapiens) (UniProt P16591); conditions: at 10 µM
[3] = molecular target: Fibroblast growth factor receptor 2 (Homo sapiens) (UniProt P21802); assay: Selectivity interaction (KinomeScan (DiscoverX)) EUB0000092b FGFR2; conditions: at 10 µM
[4] = molecular target: T1, Myotonin-protein kinase (Homo sapiens) (UniProt Q09013); assay: Selectivity interaction (Upstate Kinase Profiler service (Millipore)) EUB0000056c DMPK; conditions: at 1 µM
T1 sequence (whole entry): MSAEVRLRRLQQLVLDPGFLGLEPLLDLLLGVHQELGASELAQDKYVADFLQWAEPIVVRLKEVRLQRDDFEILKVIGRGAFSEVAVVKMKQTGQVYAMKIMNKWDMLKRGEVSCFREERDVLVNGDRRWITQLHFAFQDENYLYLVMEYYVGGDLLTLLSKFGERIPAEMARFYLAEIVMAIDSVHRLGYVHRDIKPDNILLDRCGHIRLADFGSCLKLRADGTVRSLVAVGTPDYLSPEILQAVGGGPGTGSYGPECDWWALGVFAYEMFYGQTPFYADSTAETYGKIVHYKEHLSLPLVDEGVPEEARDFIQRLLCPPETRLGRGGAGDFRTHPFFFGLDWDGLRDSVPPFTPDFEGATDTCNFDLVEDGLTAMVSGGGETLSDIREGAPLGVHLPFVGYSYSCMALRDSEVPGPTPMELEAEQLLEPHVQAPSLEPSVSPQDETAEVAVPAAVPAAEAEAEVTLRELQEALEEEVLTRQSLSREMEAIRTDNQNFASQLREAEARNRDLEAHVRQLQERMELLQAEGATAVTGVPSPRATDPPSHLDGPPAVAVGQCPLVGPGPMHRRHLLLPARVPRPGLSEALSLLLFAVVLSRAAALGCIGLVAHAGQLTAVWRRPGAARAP

[5] = molecular target: High affinity nerve growth factor receptor (Homo sapiens, UniProt P04629); assay: Selectivity interaction (Upstate Kinase Profiler service (Millipore)) EUB0000056c NTRK1; conditions: at 1 µM
[6] = molecular target: Serine/threonine-protein kinase mTOR (Homo sapiens, UniProt P42345); assay: Selectivity interaction (ProQinase) EUB0000171b MTOR
[7] = molecular target: Histone acetyltransferase KAT2B (Homo sapiens, UniProt Q92831); assay: Selectivity interaction (Human bromodomain panel (DSF assay)) EUB0000233b KAT2B
[8] = Selectivity interaction (Calcium Channel (L) receptor assay: rat brain ) EUB0000877a CACNA1C
[9] = molecular target: Tyrosine-protein kinase ABL1 (Homo sapiens, UniProt P00519); assay: Selectivity interaction (KinaseProfiler screening (Millipore)) EUB0000601a ABL1; conditions: at 3 µM
[10] = molecular target: T2, STE20-related kinase adapter protein alpha (Homo sapiens) (UniProt Q7RTN6); assay: Selectivity interaction (ActivX KiNativ screen (kinase selectivity in THP-1 cell lysates)) EUB0000639a STRADA; format: subcellular; conditions: lysate, at 0.01 µM
T2 sequence (whole entry): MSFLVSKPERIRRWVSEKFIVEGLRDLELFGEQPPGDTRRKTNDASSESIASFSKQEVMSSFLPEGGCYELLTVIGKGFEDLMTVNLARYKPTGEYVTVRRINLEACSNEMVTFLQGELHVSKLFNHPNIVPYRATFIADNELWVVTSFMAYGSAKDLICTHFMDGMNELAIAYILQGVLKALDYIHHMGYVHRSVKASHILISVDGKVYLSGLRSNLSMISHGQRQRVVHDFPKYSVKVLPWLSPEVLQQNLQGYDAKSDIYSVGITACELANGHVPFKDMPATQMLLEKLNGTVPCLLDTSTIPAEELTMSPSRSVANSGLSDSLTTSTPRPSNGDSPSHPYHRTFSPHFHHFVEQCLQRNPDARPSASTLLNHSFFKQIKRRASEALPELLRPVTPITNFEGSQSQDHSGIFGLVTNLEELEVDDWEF

[11] = molecular target: Dual specificity protein kinase CLK4 (Homo sapiens, UniProt Q9HAZ1); assay: Selectivity interaction (Kinase panel (Invitrogen)) EUB0000639a CLK4; conditions: at 200 nM
[12] = molecular target: Non-receptor tyrosine-protein kinase TYK2 (Homo sapiens, UniProt P29597); assay: Selectivity interaction (Ambit KINOMEscan and KiNATiv profiling in Jurkat cells) EUB0000090b TYK2; format: cell-based; conditions: at 1 µM
[13] = molecular target: T3, Kinase suppressor of Ras 1 (Homo sapiens) (UniProt Q8IVT5); assay: Selectivity interaction (ActivX KiNativ screen (ex vivo kinase selectivity in human PBMCs)) EUB0001619a KSR1; format: cell-based; conditions: PBMC, at 1 µM
T3 sequence (whole entry): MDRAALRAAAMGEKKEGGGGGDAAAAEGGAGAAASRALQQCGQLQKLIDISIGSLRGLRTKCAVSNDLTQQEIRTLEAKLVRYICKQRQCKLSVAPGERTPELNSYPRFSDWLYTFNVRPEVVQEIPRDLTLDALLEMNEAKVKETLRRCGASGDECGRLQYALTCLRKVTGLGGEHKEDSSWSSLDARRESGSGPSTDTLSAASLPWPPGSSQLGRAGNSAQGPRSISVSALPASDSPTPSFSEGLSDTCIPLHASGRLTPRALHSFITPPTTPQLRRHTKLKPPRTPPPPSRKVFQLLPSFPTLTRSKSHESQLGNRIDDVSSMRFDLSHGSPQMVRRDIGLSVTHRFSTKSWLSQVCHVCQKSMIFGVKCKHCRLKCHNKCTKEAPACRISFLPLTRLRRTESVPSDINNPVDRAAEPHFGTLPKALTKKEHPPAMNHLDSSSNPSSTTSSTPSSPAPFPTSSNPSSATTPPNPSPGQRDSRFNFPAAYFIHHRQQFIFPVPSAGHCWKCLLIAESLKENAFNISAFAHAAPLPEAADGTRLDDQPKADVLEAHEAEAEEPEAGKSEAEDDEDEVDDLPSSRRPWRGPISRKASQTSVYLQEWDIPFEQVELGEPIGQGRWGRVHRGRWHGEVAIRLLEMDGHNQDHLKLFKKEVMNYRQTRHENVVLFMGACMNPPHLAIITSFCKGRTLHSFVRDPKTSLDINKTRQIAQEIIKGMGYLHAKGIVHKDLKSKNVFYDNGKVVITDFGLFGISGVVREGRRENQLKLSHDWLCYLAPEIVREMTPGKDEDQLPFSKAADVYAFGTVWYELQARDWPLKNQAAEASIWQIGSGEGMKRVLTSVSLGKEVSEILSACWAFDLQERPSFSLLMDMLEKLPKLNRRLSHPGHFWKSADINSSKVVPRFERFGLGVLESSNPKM

Chain of Fibroblast growth factor receptor 2 (Homo sapiens) (P21802 22-821 limits assumed): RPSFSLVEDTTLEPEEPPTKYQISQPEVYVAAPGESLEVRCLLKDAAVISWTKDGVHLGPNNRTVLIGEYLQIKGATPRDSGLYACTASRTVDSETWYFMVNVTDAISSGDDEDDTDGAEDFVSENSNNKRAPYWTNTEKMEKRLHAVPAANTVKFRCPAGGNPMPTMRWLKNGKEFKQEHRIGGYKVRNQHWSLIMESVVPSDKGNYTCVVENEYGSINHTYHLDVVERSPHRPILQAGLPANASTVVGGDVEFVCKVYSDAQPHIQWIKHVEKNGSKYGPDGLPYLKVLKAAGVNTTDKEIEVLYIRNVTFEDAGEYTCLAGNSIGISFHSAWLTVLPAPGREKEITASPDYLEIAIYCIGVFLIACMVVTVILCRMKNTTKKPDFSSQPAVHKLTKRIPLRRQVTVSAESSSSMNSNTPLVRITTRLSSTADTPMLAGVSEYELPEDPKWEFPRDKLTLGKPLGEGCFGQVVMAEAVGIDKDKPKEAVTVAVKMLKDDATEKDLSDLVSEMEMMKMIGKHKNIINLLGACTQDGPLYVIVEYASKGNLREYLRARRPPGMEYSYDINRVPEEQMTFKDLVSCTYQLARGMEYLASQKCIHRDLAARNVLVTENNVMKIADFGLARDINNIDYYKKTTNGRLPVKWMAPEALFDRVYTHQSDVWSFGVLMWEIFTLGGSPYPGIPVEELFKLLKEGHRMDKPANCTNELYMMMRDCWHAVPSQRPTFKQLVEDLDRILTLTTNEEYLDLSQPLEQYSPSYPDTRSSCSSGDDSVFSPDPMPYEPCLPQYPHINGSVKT
Chain of High affinity nerve growth factor receptor (P04629 33-796 limits assumed): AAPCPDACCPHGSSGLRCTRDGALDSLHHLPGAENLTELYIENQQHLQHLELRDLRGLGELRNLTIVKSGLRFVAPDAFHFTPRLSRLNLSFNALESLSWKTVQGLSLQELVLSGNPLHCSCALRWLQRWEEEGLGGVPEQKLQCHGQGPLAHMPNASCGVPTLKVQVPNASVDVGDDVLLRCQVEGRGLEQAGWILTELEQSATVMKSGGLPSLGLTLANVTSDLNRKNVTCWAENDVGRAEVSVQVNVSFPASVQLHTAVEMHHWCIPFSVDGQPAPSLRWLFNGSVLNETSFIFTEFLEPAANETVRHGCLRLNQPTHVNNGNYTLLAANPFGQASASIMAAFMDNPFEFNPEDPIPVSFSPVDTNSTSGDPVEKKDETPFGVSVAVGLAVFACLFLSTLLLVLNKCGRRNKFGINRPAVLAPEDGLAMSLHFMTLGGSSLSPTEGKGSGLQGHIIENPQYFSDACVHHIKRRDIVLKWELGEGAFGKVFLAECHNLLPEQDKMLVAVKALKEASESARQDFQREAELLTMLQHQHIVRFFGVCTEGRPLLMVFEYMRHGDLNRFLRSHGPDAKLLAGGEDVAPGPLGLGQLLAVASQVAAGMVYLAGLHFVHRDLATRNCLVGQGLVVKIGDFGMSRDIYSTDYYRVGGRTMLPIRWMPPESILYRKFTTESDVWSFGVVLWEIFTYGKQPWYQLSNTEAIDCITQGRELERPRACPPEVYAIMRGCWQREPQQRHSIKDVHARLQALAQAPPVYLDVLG
Chain of Serine/threonine-protein kinase 10 (Homo sapiens) (O94804 whole entry, looked up): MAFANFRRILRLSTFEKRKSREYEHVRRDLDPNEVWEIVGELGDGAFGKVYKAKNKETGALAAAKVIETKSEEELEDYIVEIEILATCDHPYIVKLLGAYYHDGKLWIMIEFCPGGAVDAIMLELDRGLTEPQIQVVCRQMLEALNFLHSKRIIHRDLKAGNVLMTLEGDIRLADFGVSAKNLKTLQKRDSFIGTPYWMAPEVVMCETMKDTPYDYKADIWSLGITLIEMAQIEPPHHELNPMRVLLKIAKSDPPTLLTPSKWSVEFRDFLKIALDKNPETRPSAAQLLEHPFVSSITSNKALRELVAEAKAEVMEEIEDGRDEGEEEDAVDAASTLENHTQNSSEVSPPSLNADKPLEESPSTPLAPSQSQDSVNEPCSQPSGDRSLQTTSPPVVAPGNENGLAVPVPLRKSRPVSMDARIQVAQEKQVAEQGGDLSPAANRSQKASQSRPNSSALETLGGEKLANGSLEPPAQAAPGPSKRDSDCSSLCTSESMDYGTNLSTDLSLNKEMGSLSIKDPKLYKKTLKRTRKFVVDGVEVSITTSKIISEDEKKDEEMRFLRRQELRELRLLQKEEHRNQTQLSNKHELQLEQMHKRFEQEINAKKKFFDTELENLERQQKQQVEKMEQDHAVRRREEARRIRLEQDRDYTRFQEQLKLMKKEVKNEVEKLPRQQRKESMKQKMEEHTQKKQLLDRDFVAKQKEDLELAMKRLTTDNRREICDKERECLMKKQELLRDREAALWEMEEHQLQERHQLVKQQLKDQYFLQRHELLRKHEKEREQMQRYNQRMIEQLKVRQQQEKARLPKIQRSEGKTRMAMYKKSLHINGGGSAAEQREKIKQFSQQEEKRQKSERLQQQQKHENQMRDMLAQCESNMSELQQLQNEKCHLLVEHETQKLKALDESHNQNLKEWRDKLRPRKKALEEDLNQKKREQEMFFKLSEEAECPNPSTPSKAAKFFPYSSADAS
Chain of Non-receptor tyrosine-protein kinase TYK2 (P29597 whole entry): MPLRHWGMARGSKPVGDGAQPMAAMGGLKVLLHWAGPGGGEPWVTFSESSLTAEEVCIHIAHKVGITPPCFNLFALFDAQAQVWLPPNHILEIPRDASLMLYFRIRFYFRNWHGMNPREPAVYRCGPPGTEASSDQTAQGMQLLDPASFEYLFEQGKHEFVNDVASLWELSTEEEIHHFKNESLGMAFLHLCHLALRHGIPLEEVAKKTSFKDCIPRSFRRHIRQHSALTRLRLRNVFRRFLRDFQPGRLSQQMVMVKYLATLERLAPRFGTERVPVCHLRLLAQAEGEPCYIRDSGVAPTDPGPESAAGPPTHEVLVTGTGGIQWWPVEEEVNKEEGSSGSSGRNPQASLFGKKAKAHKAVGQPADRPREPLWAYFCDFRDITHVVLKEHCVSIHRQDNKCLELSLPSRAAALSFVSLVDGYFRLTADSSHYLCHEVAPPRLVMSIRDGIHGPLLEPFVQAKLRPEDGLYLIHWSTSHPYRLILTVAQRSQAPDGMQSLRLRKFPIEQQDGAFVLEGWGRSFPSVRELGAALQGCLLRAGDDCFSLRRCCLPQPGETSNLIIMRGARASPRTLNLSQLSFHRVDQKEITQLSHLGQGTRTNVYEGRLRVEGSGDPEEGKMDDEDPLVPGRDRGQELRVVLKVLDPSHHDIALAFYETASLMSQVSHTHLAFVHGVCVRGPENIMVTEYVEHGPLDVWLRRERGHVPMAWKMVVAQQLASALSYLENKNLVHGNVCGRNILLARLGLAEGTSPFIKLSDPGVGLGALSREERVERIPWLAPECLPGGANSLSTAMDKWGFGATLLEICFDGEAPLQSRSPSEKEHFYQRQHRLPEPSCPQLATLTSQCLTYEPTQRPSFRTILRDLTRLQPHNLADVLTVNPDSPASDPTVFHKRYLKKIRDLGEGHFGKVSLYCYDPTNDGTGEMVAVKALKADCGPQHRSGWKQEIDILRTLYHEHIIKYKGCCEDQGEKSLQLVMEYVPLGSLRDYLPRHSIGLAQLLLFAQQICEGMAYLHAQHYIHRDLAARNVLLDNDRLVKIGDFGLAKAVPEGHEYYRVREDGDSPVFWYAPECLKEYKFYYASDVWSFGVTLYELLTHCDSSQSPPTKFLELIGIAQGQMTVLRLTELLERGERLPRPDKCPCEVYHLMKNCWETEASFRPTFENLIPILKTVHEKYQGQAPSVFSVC
Chain of Tyrosine-protein kinase Fer (Homo sapiens) (P16591 whole entry, looked up): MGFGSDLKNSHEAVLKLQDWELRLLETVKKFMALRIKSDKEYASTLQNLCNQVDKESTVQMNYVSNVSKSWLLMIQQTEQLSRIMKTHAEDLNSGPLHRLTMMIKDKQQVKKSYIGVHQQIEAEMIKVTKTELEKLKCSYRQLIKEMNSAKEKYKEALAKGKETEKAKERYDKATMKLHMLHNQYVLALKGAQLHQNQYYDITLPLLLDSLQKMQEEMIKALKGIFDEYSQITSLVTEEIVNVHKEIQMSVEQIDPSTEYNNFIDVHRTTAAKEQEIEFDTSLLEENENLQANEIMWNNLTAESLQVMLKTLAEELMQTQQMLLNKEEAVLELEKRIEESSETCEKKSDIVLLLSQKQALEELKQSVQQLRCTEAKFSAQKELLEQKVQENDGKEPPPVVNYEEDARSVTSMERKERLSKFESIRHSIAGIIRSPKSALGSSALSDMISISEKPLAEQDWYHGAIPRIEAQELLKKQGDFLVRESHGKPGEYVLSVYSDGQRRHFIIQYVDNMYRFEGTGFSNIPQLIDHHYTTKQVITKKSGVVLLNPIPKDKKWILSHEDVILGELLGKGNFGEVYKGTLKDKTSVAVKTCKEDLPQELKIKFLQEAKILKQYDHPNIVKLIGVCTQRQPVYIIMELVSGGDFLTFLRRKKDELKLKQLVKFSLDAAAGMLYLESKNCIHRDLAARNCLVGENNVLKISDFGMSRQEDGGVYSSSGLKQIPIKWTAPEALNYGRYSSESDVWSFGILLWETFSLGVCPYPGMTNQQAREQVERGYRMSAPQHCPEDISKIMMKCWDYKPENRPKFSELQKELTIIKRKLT
Chain of Dual specificity protein kinase CLK4 (Q9HAZ1 whole entry, looked up): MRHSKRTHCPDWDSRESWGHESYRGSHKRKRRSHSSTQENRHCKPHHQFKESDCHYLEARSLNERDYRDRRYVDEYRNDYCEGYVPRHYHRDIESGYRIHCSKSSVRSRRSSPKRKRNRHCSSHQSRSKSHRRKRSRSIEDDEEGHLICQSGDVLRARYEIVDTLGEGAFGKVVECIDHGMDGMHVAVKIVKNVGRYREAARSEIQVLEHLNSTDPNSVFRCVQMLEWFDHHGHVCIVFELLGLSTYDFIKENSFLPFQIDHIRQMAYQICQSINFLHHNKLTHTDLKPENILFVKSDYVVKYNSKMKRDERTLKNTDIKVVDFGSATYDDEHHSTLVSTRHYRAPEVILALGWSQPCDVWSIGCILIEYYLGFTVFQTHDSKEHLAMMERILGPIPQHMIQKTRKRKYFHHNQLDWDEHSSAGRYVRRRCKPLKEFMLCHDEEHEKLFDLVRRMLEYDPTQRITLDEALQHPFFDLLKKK

With `CCN(CC)CCCCNc1ncc2cc(-c3cc(OC)cc(OC)c3)c(NC(=O)NC(C)(C)C)nc2n1` the % of control [1] was 100% and the % of control [2] was 100%.

In the case of `CCC(=O)N1CCN(c2ccc(-n3c(=O)ccc4cnc5ccc(-c6cnc7ccccc7c6)cc5c43)cc2C(F)(F)F)CC1`, the % of control [3] is reported as 55%.

`Cc1ccc(-c2ccc3c(ccc4sc5c(c43)NC[C@@H](C)NC5=O)n2)cn1` gave a % of inhibition [4] of -8% and a % of inhibition [5] of 3%.

For `C=CC(=O)Nc1cccc(C(=O)Nc2ccc(Nc3cc(-c4[nH]c(SC)nc4C)ccn3)cc2)c1`, the % of control ([6]; at 1 µM) was 88% and the % of control ([6]; at 5 µM) was 91%.

Work on `CN(C)CCCOc1ccc(-c2cc(NCCCn3cccn3)nc(S(C)(=O)=O)n2)cc1` yielded a dTM [7] of less than 2 K.

For `CCC(=O)N1CC[C@H](Nc2ncnc3c2CN(c2cnc(OC)c(C(F)(F)F)c2)CC3)C1` [LENIOLISIB], the IC50 [8] was greater than 30 µM.

Compound `CCc1cc(Nc2nccc(-c3c(-c4ccc(OC)c(C(=O)Nc5c(F)cccc5F)c4)nc4ccccn34)n2)c(OC)cc1N1CCC(N2CCN(S(C)(=O)=O)CC2)CC1` has a % of inhibition [9] of 57%.

`CC[C@@H]1[C@H](F)C(=O)N[C@@H]1COc1nccc2cc(C(N)=O)c(OC)cc12` [ZIMLOVISERTIB] gave a % of inhibition [10] of -6.5% and a % of inhibition [11] of 75.7%.

Compound `CN(C)C/C=C/C(=O)Nc1ccc(C(=O)N2CCCC(Nc3ncc(Cl)c(-c4c[nH]c5ccccc45)n3)C2)cc1` (centres undefined) has a % of control [12] of 94%.

`N#Cc1cccc(-c2c[nH]c3ncnc(N4CCOCC4)c23)c1` showed a % of inhibition [13] of 12%.
